Counter-ions that a name gives are not always drawn.

The term IC50 denotes the concentration needed to halve the response being measured.

This test deals with Recombinant Btk (Homo sapiens (Human), UniProt Q06187). Kind of test: BTK kinase assay (TR-FRET). Particulars: read-out: IC50 (nM) Btk; 1 hour pre-incubation, ATP at Km. For orientation: Time-resolved FRET reads energy transfer from a long-lived donor to a nearby acceptor.
Sequence of Recombinant Btk (Q06187 whole entry): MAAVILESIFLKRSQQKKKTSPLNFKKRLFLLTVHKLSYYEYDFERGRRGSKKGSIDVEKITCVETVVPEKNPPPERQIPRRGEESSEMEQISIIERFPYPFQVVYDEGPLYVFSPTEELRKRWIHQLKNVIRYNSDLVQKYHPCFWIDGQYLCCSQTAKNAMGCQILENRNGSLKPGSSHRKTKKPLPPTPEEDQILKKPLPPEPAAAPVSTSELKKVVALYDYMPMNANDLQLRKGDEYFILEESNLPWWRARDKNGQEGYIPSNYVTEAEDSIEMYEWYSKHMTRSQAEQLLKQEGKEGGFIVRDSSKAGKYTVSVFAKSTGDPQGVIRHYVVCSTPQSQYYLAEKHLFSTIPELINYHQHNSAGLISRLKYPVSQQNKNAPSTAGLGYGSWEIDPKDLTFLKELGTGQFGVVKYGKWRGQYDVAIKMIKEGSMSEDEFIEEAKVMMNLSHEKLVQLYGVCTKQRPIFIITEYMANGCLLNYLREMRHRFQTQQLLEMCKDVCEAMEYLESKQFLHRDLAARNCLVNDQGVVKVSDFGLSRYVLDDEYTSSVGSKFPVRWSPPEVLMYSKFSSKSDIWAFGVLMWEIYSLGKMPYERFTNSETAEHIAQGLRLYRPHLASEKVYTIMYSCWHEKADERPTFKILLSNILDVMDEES
In the case of `C=CC(=O)NCC1(C)CCNc2c(C(N)=O)c(-c3ccc(Oc4ccccc4)cc3)nn21` (stereo not shown) [Compound 143, 7-(acrylamidomethyl)-7-methyl-2-(4-phenoxyphenyl)-4,5,6,7-tetrahydropyrazolo[1,5-a]pyrimidine-3-carboxamide], the 50% inhibitory concentration (IC50) worked out at 0.89 nM.

For the molecule `C=CC(=O)N1CCC(C2CCNc3c(C(N)=O)c(-c4ccccc4)nn32)CC1` (stereo not shown) [Compound 144, 7-(1-acryloylpiperidin-4-yl)-2-phenyl-4,5,6,7-tetrahydropyrazolo[1,5-a]pyrimidine-3-carboxamide trifluoroacetate], the IC50 turned out to be 140 nM.

`C=CC(=O)N1CC(C2CCNc3c(C(N)=O)c(-c4ccc(Cl)cc4)nn32)C1` (stereo not shown) [Compound 145, 7-(1-acryloylazetidin-3-yl)-2-(4-chlorophenyl)-4,5,6,7-tetrahydropyrazolo[1,5-a]pyrimidine-3-carboxamide]: the IC50 came to 72 nM.

As for `C=CC(=O)Nc1ccccc1C1CCNc2c(C(N)=O)c(-c3ccc(OCc4ccccn4)c(Cl)c3)nn21` (stereo not shown) [Compound 146, 7-(2-Acrylamidophenyl)-2-(3-chloro-4-(pyridin-2-ylmethoxy)phenyl)-4,5,6,7-tetrahydropyrazolo[1,5-a]pyrimidine-3-carboxamide], the IC50 worked out at 1.3 nM.

For `C=CC(=O)Nc1cc(Cl)ccc1C1CCNc2c(C(N)=O)c(-c3ccc(OCC4CC4)cc3)nn21` (stereo not shown) [Compound 147, 7-(2-Acrylamido-4-chlorophenyl)-2-(4-(cyclopropylmethoxy)phenyl)-4,5,6,7-tetrahydropyrazolo[1,5-a]pyrimidine-3-carboxamide], the IC50 stood at 2.7 nM.

As to `C=CC(=O)Nc1cc(C)ccc1C1CCNc2c(C(N)=O)c(-c3ccc(OCC4CC4)cc3)nn21` (stereo not shown) [Compound 148, 7-(2-Acrylamido-4-methylphenyl)-2-(4-(cyclopropylmethoxy)phenyl)-4,5,6,7-tetrahydropyrazolo[1,5-a]pyrimidine-3-carboxamide], the half-maximal inhibitory concentration (IC50) amounted to 5.6 nM.

Take `C=CC(=O)Nc1ccccc1C1CCNc2c(C(N)=O)c(-c3ccccc3)nn21` (stereo not shown) [Compound 150, 7-(2-Acrylamidophenyl)-2-phenyl-4,5,6,7-tetrahydropyrazolo[1,5-a]pyrimidine-3-carboxamide]: the IC50 was found to be 4.7 nM.

For the molecule `C=CC(=O)Nc1ccccc1C1CCNc2c(C(N)=O)c(-c3ccc(F)c(Br)c3)nn21` (stereo not shown) [Compound 152, 7-(2-Acrylamidophenyl)-2-(3-bromo-4-fluorophenyl)-4,5,6,7-tetrahydropyrazolo[1,5-a]pyrimidine-3-carboxamide], the half-inhibitory concentration (IC50) is 1.2 nM.

As for `NC(=O)c1c(-c2ccc(F)c(Cl)c2)nn2c1NCCC2c1ccccc1NC(=O)/C=C/CN1CCCCC1` (stereo not shown) [Compound 153, (E)-2-(3-Chloro-4-fluorophenyl)-7-(2-(4-(piperidin-1-yl)but-2-enamido)phenyl)-4,5,6,7-tetrahydropyrazolo[1,5-a]pyrimidine-3-carboxamide], the IC50 amounted to 6.1 nM.

As for `C=CC(=O)Nc1ccccc1C1CCNc2c(C(N)=O)c(-c3ccc(Cl)c(F)c3)nn21` (stereo not shown) [Compound 154, 7-(2-Acrylamidophenyl)-2-(4-chloro-3-fluorophenyl)-4,5,6,7-tetrahydropyrazolo[1,5-a]pyrimidine-3-carboxamide], the IC50 was found to be 1.2 nM.

Take `C=CC(=O)Nc1ccccc1C1CCNc2c(C(N)=O)c(-c3cccc(Cl)c3)nn21` (stereo not shown) [Compound 155, 7-(2-Acrylamidophenyl)-2-(3-chlorophenyl)-4,5,6,7-tetrahydropyrazolo[1,5-a]pyrimidine-3-carboxamide]: the IC50 was found to be 0.96 nM.

Regarding `C=CC(=O)Nc1ccccc1C1CCNc2c(C(N)=O)c(-c3ccc(Cl)c(Cl)c3)nn21` (stereo not shown) [Compound 156, 7-(2-Acrylamidophenyl)-2-(3,4-dichlorophenyl)-4,5,6,7-tetrahydropyrazolo[1,5-a]pyrimidine-3-carboxamide], the concentration for half-maximal inhibition (IC50) was found to be 0.55 nM.

`C=CC(=O)Nc1ccccc1C1CCNc2c(C(N)=O)c(-c3ccc(F)c(C)c3)nn21` (stereo not shown) [Compound 157, 7-(2-Acrylamidophenyl)-2-(4-fluoro-3-methylphenyl)-4,5,6,7-tetrahydropyrazolo[1,5-a]pyrimidine-3-carboxamide]: the IC50 came to 0.38 nM.

For the molecule `C=CC(=O)Nc1ccccc1C1CCNc2c(C(N)=O)c(-c3cc(F)c(F)c(Cl)c3)nn21` (stereo not shown) [Compound 158, 7-(2-Acrylamidophenyl)-2-(3-chloro-4.5-difluorophenyl)-4,5,6,7-tetrahydropyrazolo[1,5-a]pyrimidine-3-carboxamide], the IC50 is 2.9 nM.

Consider `C=CC(=O)Nc1ccccc1C1CCNc2c(C(N)=O)c(-c3ccc(Cl)c(OC)c3)nn21` (stereo not shown) [Compound 160, 7-(2-Acrylamidophenyl)-2-(4-chloro-3-methoxyphenyl)-4,5,6,7-tetrahydropyrazolo[1,5-a]pyrimidine-3-carboxamide], for which the half-maximal inhibitory concentration (IC50) came to 0.49 nM.

As to `C=CC(=O)Nc1ccccc1C1CCNc2c(C(N)=O)c(-c3ccc(C(F)(F)F)c(Cl)c3)nn21` (stereo not shown) [Compound 162, 7-(2-Acrylamidophenyl)-2-(3-chloro-4-(trifluoromethyl)phenyl)-4,5,6,7-tetrahydropyrazolo[1,5-a]pyrimidine-3-carboxamide], the 50% inhibitory concentration (IC50) stood at 2.1 nM.

`C=CC(=O)Nc1ccccc1C1CCNc2c(C(N)=O)c(-c3ccc(Cl)c(C(F)(F)F)c3)nn21` (stereo not shown) [Compound 163, 7-(2-Acrylamidophenyl)-2-(4-chloro-3-(trifluoromethyl)phenyl)-4,5,6,7-tetrahydropyrazolo[1,5-a]pyrimidine-3-carboxamide]: the IC50 stood at 7.3 nM.

`COc1cc(-c2nn3c(c2C(N)=O)NCCC3c2ccccc2NC(=O)/C=C/CN(C)C)ccc1C` (stereo not shown) [Compound 165, (E)-7-(2-(4-(Dimethylamino)but-2-enamido)phenyl)-2-(3-methoxy-4-methylphenyl)-4,5,6,7-tetrahydropyrazolo[1,5-a]pyrimidine-3-carboxamide]: the IC50 turned out to be 1.6 nM.

`C=CC(=O)Nc1ccccc1C1CCNc2c(C(N)=O)c(-c3cccc(OC)c3)nn21` (stereo not shown) [Compound 166, 7-(2-Acrylamidophenyl)-2-(3-methoxyphenyl)-4,5,6,7-tetrahydropyrazolo[1,5-a]pyrimidine-3-carboxamide]: the IC50 was found to be 2.7 nM.

As to `C=CC(=O)Nc1ccccc1C1CCNc2c(C(N)=O)c(-c3cc(OC)c(OC)c(OC)c3)nn21` (stereo not shown) [Compound 167, 7-(2-Acrylamidophenyl)-2-(3,4,5-trimethoxyphenyl)-4,5,6,7-tetrahydropyrazolo[1,5-a]pyrimidine-3-carboxamide], the IC50 is 2.4 nM.

Turning to `C=CC(=O)Nc1ccccc1C1CCNc2c(C(N)=O)c(-c3ccc(OC)c(OC)c3)nn21` (stereo not shown) [Compound 168, 7-(2-Acrylamidophenyl)-2-(3,4-dimethoxyphenyl)-4,5,6,7-tetrahydropyrazolo[1,5-a]pyrimidine-3-carboxamide], the concentration for half-maximal inhibition (IC50) is 3.2 nM.

Turning to `C=CC(=O)Nc1ccccc1C1CCNc2c(C(N)=O)c(-c3cc(Cl)c(OC)c(Cl)c3)nn21` (stereo not shown) [Compound 169, 7-(2-Acrylamidophenyl)-2-(3,5-dichloro-4-methoxyphenyl)-4,5,6,7-tetrahydropyrazolo[1,5-a]pyrimidine-3-carboxamide], the concentration for half-maximal inhibition (IC50) was 0.15 nM.

Consider `NC(=O)c1c(-c2ccc(Oc3ccccc3)cc2)nn2c1NCCC2C1CCN(C(=O)/C=C/CN2CCCCC2)CC1` (stereo not shown) [Compound 170, (E)-2-(4-Phenoxyphenyl)-7-(1-(4-(piperidin-1-yl)but-2-enoyl)piperidin-4-yl)-4,5,6,7-tetrahydropyrazolo[1,5-a]pyrimidine-3-carboxamide], for which the IC50 turned out to be 3.8 nM.

In the case of `C=CC(=O)N1CCC(C2CCNc3c(C(N)=O)c(-c4ccc(C)c(OC)c4)nn32)CC1` (stereo not shown) [Compound 174, 7-(1-Acryloylpiperidin-4-yl)-2-(3-methoxy-4-methylphenyl)-4,5,6,7-tetrahydropyrazolo[1,5-a]pyrimidine-3-carboxamide], the IC50 was determined as 4.8 nM.

As to `C=CC(=O)N1CC(C2(C)CCNc3c(C(N)=O)c(-c4ccc(Oc5ccccc5)cc4)nn32)C1` (stereo not shown) [Compound 175, 7-(1-Acryloylazetidin-3-yl)-7-methyl-2-(4-phenoxyphenyl)-4,5,6,7-tetrahydropyrazolo[1,5-a]pyrimidine-3-carboxamide], the IC50 was found to be 1.2 nM.

`NC(=O)c1c(-c2ccc(Oc3ccccc3)cc2)nn2c1NCC[C@H]2C1CCN(C(=O)CCCl)CC1` [Compound 177, (S)-7-(1-(3-chloropropanoyl)piperidin-4-yl)-2-(4-phenoxyphenyl)-4,5,6,7-tetrahydropyrazolo[1,5-a]pyrimidine-3-carboxamide]: the half-inhibitory concentration (IC50) turned out to be 5.7 nM.

Turning to `CC#CC(=O)N1CCC(C2CCNc3c(C(N)=O)c(-c4ccc(Oc5ccc(F)cc5F)cc4)nn32)CC1` (stereo not shown) [Compound 179, 7-(1-(But-2-ynoyl)piperidin-4-yl)-2-(4-(2,4-difluorophenoxy)phenyl)-4,5,6,7-tetrahydropyrazolo[1,5-a]pyrimidine-3-carboxamide], the half-maximal inhibitory concentration (IC50) worked out at 48 nM.

Consider `N#CCC(=O)N1CCC([C@@H]2CCNc3c(C(N)=O)c(-c4ccc(Oc5ccccc5)cc4)nn32)CC1` [Compound 180, (S)-7-(1-(2-Cyanoacetyl)piperidin-4-yl)-2-(4-phenoxyphenyl)-4,5,6,7-tetrahydropyrazolo[1,5-a]pyrimidine-3-carboxamide], for which the IC50 was 87 nM.

As to `N#CC(=CC1CC1)C(=O)N1CCC([C@@H]2CCNc3c(C(N)=O)c(-c4ccc(Oc5ccccc5)cc4)nn32)CC1` [Compound 181, (S)-7-(1-(2-cyano-3-cyclopropylacryloyl)piperidin-4-yl)-2-(4-phenoxyphenyl)-4,5,6,7-tetrahydropyrazolo[1,5-a]pyrimidine-3-carboxamide], the half-inhibitory concentration (IC50) turned out to be 25 nM.

Turning to `N#CN1CCC([C@@H]2CCNc3c(C(N)=O)c(-c4ccc(Oc5ccccc5)cc4)nn32)CC1` [Compound 182, (S)-7-(1-cyanopiperidin-4-yl)-2-(4-phenoxyphenyl)-4,5,6,7-tetrahydropyrazolo[1,5-a]pyrimidine-3-carboxamide], the half-inhibitory concentration (IC50) was 124 nM.

Turning to `CC#CC(=O)N1CC(C2CCNc3c(C(N)=O)c(-c4ccc(Oc5ccccc5)cc4)nn32)C1` (stereo not shown) [Compound 184, 7-(1-(But-2-ynoyl)azetidin-3-yl)-2-(4-phenoxyphenyl)-4,5,6,7-tetrahydropyrazolo[1,5-a]pyrimidine-3-carboxamide], the 50% inhibitory concentration (IC50) came out at 4.7 nM.

Source of the values: patent US20250340560A1, “SUBSTITUTED PYRAZOLO[1,5-a]PYRIMIDINES AS BRUTON'S TYROSINE KINASE MODULATORS” (BEIGENE SWITZERLAND GMBH, priority 2013, published 2025).
